pKi: −log10 of the molar value. Several values for one entry are separate records, joined by “and”; a condition that tells them apart may be missing. Equal values may be shown once. Read-outs that look alike come from different tables or passages of the source.
Tests used:
human CB1 receptor = molecular target: T1, human CB1 receptor (Homo sapiens, UniProt P21554); assay: Radioligand displacement in human CB1 receptor-transfected cells (HEK-293); assay type: binding; conditions: for pKi: Ki
T1 construct: expressed in transfected cells; host or cells: HEK-293
T1 sequence (P21554 whole entry): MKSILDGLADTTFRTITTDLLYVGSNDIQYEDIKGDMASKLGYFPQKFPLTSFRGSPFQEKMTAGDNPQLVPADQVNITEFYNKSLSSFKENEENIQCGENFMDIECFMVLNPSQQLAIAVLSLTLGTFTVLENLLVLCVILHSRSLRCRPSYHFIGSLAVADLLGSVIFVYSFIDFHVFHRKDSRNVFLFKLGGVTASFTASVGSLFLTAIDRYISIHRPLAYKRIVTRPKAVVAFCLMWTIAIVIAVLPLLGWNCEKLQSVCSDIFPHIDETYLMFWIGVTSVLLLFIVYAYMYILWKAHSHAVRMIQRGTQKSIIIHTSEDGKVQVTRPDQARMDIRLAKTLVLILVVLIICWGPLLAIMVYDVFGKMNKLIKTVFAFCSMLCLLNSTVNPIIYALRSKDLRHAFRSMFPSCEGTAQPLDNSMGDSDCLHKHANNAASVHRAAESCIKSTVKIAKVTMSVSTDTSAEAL
How it was run: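 Radioligand displacement was run on HEK-293 cells expressing human CB1, with incubation and separation as for rat brain membranes. IC50 values came from one- or two-site nonlinear regression and were converted to Ki by Cheng-Prusoff.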

human CB2 receptor = molecular target: T2, human CB2 receptor (Homo sapiens, UniProt P34972); assay: Displacement of 3H-CP55,940 in human CB2 receptor-transfected cells (CHO-K1); assay type: binding; conditions: radioligand 3H-CP55940, Tables 6 and 7
T2 construct: expressed in transfected cells; host or cells: CHO-K1
T2 sequence (P34972 whole entry): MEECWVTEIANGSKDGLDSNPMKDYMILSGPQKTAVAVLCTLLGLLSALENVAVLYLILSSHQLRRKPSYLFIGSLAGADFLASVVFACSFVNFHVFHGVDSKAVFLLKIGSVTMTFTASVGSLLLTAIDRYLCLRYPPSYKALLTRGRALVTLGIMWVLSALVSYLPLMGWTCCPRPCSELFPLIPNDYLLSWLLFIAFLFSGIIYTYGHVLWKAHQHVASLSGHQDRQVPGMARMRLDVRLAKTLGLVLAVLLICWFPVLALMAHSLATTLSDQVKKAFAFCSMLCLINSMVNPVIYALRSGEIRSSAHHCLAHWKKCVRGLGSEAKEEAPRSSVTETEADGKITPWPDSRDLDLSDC
How it was run: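 CB2 receptor expressed in CHO-K1 cells; [3H]-CP55,940 displacement with incubation and separation as for rat brain membranes.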

cannabinoid receptors = molecular target: T3, cannabinoid receptors (Mus musculus, UniProt P47746); assay: Mouse vas deferens tissue assay (WIN55212-2 as agonist); conditions: for % Inverse Effect: in the absence of WIN55212-2; for Dextral Shift: shift of the WIN55212-2 dose response curve
T3 construct: mediated by cannabinoid receptors located on prejunctional neurones; from tissue; host or cells: mouse isolated vas deferens
T3 sequence (P47746 whole entry): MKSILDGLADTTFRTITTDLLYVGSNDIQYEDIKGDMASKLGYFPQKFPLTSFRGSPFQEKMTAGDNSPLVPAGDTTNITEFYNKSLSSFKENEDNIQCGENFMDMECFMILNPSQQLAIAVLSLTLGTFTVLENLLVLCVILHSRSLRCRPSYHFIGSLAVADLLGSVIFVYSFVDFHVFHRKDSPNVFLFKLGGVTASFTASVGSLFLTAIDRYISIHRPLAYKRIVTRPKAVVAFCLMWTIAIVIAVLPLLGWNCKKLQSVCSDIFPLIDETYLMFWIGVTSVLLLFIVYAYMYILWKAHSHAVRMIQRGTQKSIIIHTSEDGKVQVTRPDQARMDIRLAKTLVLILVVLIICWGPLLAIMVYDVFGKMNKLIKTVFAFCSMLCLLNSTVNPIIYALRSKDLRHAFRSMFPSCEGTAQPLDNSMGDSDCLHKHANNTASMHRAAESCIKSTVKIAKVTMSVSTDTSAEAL
From the text: Pharmacological characterization in isolated mouse vas deferens.
Introduction. The mouse isolated vas deferens can be used to determine both the potency and efficacy (maximum degree of inhibition produced) of cannabinoid receptor agonists. Because of its high sensitivity, this assay usually requires only microgram quantities of test material.
The inhibitory effect of cannabinoids on electrically evoked contractions is thought to be mediated by cannabinoid receptors located on prejunctional neurones rather than on the smooth muscle.
Experimental design. Isolated mouse vasa deferentia were used to determine the potency and efficacy of test compounds as inhibitors of electrically evoked contractions. […] Ability to antagonize was expressed in terms of the association constant (Kb) for the forward reaction between antagonist and cannabinoid receptors.
Methods. […] Electrical field stimulation was between platinum electrodes located at the upper and lower ends of each bath. The stimuli were generated by a Grass S48 stimulator, then amplified (Med-Lab channel attenuator) and finally divided to yield separate outputs to four organ baths (Med-Lab Stimusplitter). All contractions were recorded isometrically.
Concentration-response curves were constructed cumulatively.

CB1 versus CB2 receptors = assay: Relative selectivity of the analogs for CB1 versus CB2 receptors; conditions: CB1 versus CB2 binding, Tables 1, 6 and 7
From the text: Human CB2 receptor affinity. The relative selectivity of the analogs for CB1 versus CB2 receptors varied modestly regardless of the structural modifications examined to date.

[1] = displacement of 3H-CP55940, human CB1 transfected cells, radioligand 3H-CP55940, Table 3
[2] = displacement of 3H-SR141716A, human CB1 transfected cells, radioligand 3H-SR141716A, Table 3
[3] = displacement of 3H-WIN55212-2, human CB1 transfected cells, radioligand 3H-WIN55212-2, Table 3
[4] = human CB1 transfected cells, radioligand 3H-CP55940, Table 3
[5] = human CB1 transfected cells, radioligand 3H-SR141716A, Table 3
[6] = human CB1 transfected cells, radioligand 3H-WIN55212-2, Table 3
[7] = read-out: Ki, displacement of 3H-CP55940, human CB2 transfected cells
[8] = isolated mouse vas deferens, WIN55212-2 as agonist, Schild equation, read-out: Kb

Row | SMILES | pKi (human CB1 receptor; [1]) | pKi (human CB1 receptor; [2]) | pKi (human CB1 receptor; [3]) | Max. Disp. %, 3H-CP55940 (human CB1 receptor; [4]) [%] | Max. Disp. %, 3H-SR141716A (human CB1 receptor; [5]) [%] | Max. Disp. %, 3H-WIN55212-2 (human CB1 receptor; [6]) [%] | Max. Disp. %, 3H-CP55940 (human CB2 receptor; human CB2 transfected cells) [%] | pKi (human CB2 receptor; [7]) | Kb (cannabinoid receptors; [8]) [nM] | % Inverse Effect (cannabinoid receptors; isolated mouse vas deferens) | Dextral Shift (cannabinoid receptors; isolated mouse vas deferens) | further results
1 | Cc1c(C(=O)NCC(C)C)nn(-c2ccc(Cl)cc2Cl)c1-c1ccc(Cl)cc1 [MF9725-68-10] | 7.03 | 7.84 | 6.90 | 70.1 | 99.5 | 100 | 80.0 | 6.15 |  |  |  | 
2 | Cc1c(C(=O)NN2CCOCC2)nn(-c2ccc(Cl)cc2Cl)c1-c1ccc(Cl)cc1 [MF9725-33D] |  |  |  |  |  |  | 54.5 | 5.62 | 12.5 | 82.5% | 26.3 | 
3 | Cc1c(C(=O)NC(C)C)nn(-c2ccc(Cl)cc2Cl)c1-c1ccc(Cl)cc1 [MF9725-65-11] | 7.04 | 7.84 | 6.16 | 85.4 | 100 | 93.6 | 68.3 | 5.76 |  |  |  | 
4 | CCCCNC(=O)c1nn(-c2ccc(Cl)cc2Cl)c(-c2ccc(Cl)cc2)c1C [MF9725-64-17] | 7.55 | 8.32 | 7.53 | 90.2 | 97.4 | 93.2 | 75.6 | 5.80 | 21.2 | 28.2% | no effect | 
5 | CCCCCCCNC(=O)c1nn(-c2ccc(Cl)cc2Cl)c(-c2ccc(Cl)cc2)c1C [MF9725-133-25] |  |  |  |  |  |  | 47.8 |  |  | 50.6% and 37.8% |  | Max. Disp. %, 3H-CP55940 (human CB1 receptor): 85.3%; Max. Disp. %, 3H-SR141716A (human CB1 receptor): 67.9%; Max. Disp. %, 3H-WIN55212-2 (human CB1 receptor): 53.4%; pKi (human CB1 receptor; displacement of 3H-CP55940): 7.54; pKi (human CB1 receptor; displacement of 3H-SR141716A): 8.03; pKi (human CB1 receptor; displacement of 3H-WIN55212-2): 6.41; pKi (human CB2 receptor; Ki, displacement of 3H-CP55940, human CB2 transfected cells): 5.40; Kb (cannabinoid receptors): 83.9 nM; Kb (cannabinoid receptors; isolated mouse vas deferens, WIN55212-2 as agonist, Schild equation): no effect; Dextral Shift (cannabinoid receptors; isolated mouse vas deferens, listed as heptyl analog): failed to produce an effect
6 | CCCCCCNC(=O)c1nn(-c2ccc(Cl)cc2Cl)c(-c2ccc(Cl)cc2)c1C [MF9725-132-25] | 6.91 | 7.63 | 7.07 | 85.6 | 75.4 | 52.7 | 66.9 | 5.16 | 15.4 | 30.1% | no effect | 
7 | Cc1c(C(=O)NC2CCCCC2)nn(-c2ccc(Cl)cc2Cl)c1-c1ccc(Cl)cc1 [MF9725-66-11] | 8.15 | 8.99 | 8.27 | 92.3 | 99.9 | 96.8 | 84.5 | 6.64 | 1.2 | 55.5% | 26.7 | CB1 selectivity (CB1 versus CB2) (CB1 versus CB2 receptors): 93 fold
